# According to ChEMBL document CHEMBL1201862, “PubChem BioAssay data set” (2004):
#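 How tested: cells in 96-well plates exposed to compound for 48 hours at five concentrations. Abbreviation: GI50, concentration required for 50% inhibition of growth.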 Calls of active or inactive are those of the source. Cut-off read from the data, not from the text of the source: active = GI50 up to about 1.1 µM and inactive = higher. Starred links: 1 amine or outer side, 2 acyl side, 3 side chain; linkers in the order of their positions; H or OH if unused. Positions of bridges follow the written chain, without caps; N, C: chain ends. Non-standard residues stand in square brackets, D forms with d. Residues, ends and D or L forms follow the SMILES beside them. ξ: configuration not given here. *: point of attachment. γ4hArg(2R,3R-(OH)2) = N=C(N)NCCC[C@H](N[*:1])[C@@H](O)[C@@H](O)C(=O)[*:2]; Gln(3S,4R-Me2) = C[C@H]([C@H](N)C(=O)O)[C@@H](C)C(N)=O; X50 = CC(C)C[C@H](C)[C@@H](O)[C@@H](C)C(=O)*; X51 = COC(c1ccc(O)cc1)C(N[*:1])C(=O)[*:2]; NMeQ = CN[C@@H](CCC(N)=O)C(=O)O; Thr(3ξ) = CC(O)[C@H](N)C(=O)O; NMeA = CN[C@@H](C)C(=O)O; Cbz = O=C(OCc1ccccc1)*; Aib = CC(C)(N)C(=O)O; OBn = c1ccc(CO*)cc1; βAla = NCCC(=O)O
# Experiments:
# Experiment in all cases: growth of human tumour cells (NCI), 48 h
# [1] = tested on: NCI-H226
# [2] = tested on: SN12C
# [3] = tested on: HOP-92
# [4] = tested on: UO-31
# [5] = tested on: KM12
# [6] = tested on: HOP-62
# [7] = tested on: U-251
# [8] = tested on: OVCAR-5
# [9] = tested on: M14
# [10] = tested on: SNB-75
# [11] = tested on: Malme-3M
# [12] = tested on: HL-60
# [13] = tested on: A498
# [14] = tested on: MCF7
# [15] = tested on: BT-549
# [16] = tested on: EKVX
# [17] = tested on: HT-29
# [18] = tested on: SF-295
# [19] = tested on: SK-MEL-5
Structure (SMILES),GI50 [1],GI50 [2],GI50 [3],GI50 [4],GI50 [5],GI50 [6],GI50 [7],GI50 [8],GI50 [9],GI50 [10],GI50 [11],GI50 [12],GI50 [13],GI50 [14],GI50 [15],GI50 [16],GI50 [17],GI50 [18],GI50 [19]
"COC(c1ccc(O)cc1)C1NC(=O)[C@H](CCC(N)=O)N(C)C(=O)[C@H](CC(C)C)NC(=O)[C@@H](CCCN=C(N)N)NC(=O)[C@H](C(C)O)NC(=O)[C@@H](NC(=O)[C@@H](NC(=O)[C@H](O)[C@H](O)[C@H](CCCN=C(N)N)NC(=O)[C@H](C)NC(=O)[C@H](C)[C@H](O)[C@@H](C)CC(C)C)[C@@H](C)[C@@H](C)C(N)=O)[C@@H](C)OC(=O)[C@H](C)N(C)C1=O (stereo partly drawn) (X50-A[γ4hArg(2R,3R-(OH)2)][Gln(3S,4R-Me2)]T[Thr(3ξ)][dR]L[NMeQ][X51][NMeA]; ester 4-C)",0.212 µM (active),0.149 µM (active),0.138 µM (active),0.249 µM (active),0.121 µM (active),0.15 µM (active),0.121 µM (active),0.167 µM (active),0.115 µM (active),0.0902 µM (active),0.084 µM (active),0.167 µM (active),0.641 µM (active),0.14 µM (active),0.242 µM (active),0.0995 µM (active),0.0904 µM (active),0.0925 µM (active),0.0682 µM (active)
NS(=O)(=O)c1ccc(NC(=S)NC(=O)Nc2ccc(Cl)c(Cl)c2)cc1,20.4 µM (inactive),15.8 µM (inactive),26.5 µM (inactive),4.56 µM (inactive),9.29 µM (inactive),17.4 µM (inactive),14.9 µM (inactive),12.8 µM (inactive),7.33 µM (inactive),13.7 µM (inactive),15.2 µM (inactive),10.5 µM (inactive),1.07 µM (active),15 µM (inactive),15.4 µM (inactive),23.7 µM (inactive),11.5 µM (inactive),13.4 µM (inactive),16.1 µM (inactive)
CN(C)/N=C/c1cn(C)c(=O)n(C)c1=O,> 100 µM (inactive),> 100 µM (inactive),> 100 µM (inactive),> 100 µM (inactive),> 100 µM (inactive),> 100 µM (inactive),> 100 µM (inactive),> 100 µM (inactive),> 100 µM (inactive),35.4 µM (inactive),> 100 µM (inactive),> 100 µM (inactive),> 100 µM (inactive),> 100 µM (inactive),> 100 µM (inactive),> 100 µM (inactive),> 100 µM (inactive),> 100 µM (inactive),> 100 µM (inactive)
CC1(C)NC(=O)C(NC(=O)C(CC(=O)OCc2ccccc2)NC(=O)OCc2ccccc2)CCCCNC(=O)CCNC1=O (centres undefined) (Cbz-D(OBn)K[Aib][βAla]; lactam 2-C; configuration not given here),> 100 µM (inactive),> 100 µM (inactive),> 100 µM (inactive),> 100 µM (inactive),> 100 µM (inactive),> 100 µM (inactive),> 100 µM (inactive),> 100 µM (inactive),> 100 µM (inactive),> 100 µM (inactive),> 100 µM (inactive),> 100 µM (inactive),> 100 µM (inactive),> 100 µM (inactive),> 100 µM (inactive),> 100 µM (inactive),> 100 µM (inactive),> 100 µM (inactive),> 100 µM (inactive)
COc1ccc2c(c1[N+](=O)[O-])CC[C@@H]1[C@@H]2CC[C@]2(C)C(=O)CC[C@@H]12,23.1 µM (inactive),> 25 µM (inactive),21.4 µM (inactive),> 25 µM (inactive),> 25 µM (inactive),> 6.71 µM (inactive),> 25 µM (inactive),> 25 µM (inactive),> 25 µM (inactive),> 25 µM (inactive),17.2 µM (inactive),24.5 µM (inactive),> 25 µM (inactive),> 25 µM (inactive),> 25 µM (inactive),> 25 µM (inactive),> 25 µM (inactive),> 25 µM (inactive),> 25 µM (inactive)
Cc1cccc2c(N)c3cccc(C(=O)NCC[N+](C)(C)Cc4ccc([N+](=O)[O-])n4C)c3nc12,6.5 µM (inactive),3.07 µM (inactive),33.5 µM (inactive),16.2 µM (inactive),16.7 µM (inactive),5.25 µM (inactive),8.26 µM (inactive),17.6 µM (inactive),23.3 µM (inactive),6.32 µM (inactive),15.2 µM (inactive),4.6 µM (inactive),10.4 µM (inactive),8.65 µM (inactive),> 42.6 µM (inactive),27.6 µM (inactive),9.33 µM (inactive),17.6 µM (inactive),21.7 µM (inactive)
CSC(=N/N=C(\C)c1ccc(S(=O)(=O)N(C)c2ccccc2)cc1)SC,> 100 µM (inactive),> 66.2 µM (inactive),> 43.8 µM (inactive),> 61.5 µM (inactive),> 64.4 µM (inactive),> 62.5 µM (inactive),> 51.9 µM (inactive),> 66.5 µM (inactive),> 63.1 µM (inactive),> 63.1 µM (inactive),> 100 µM (inactive),> 43.5 µM (inactive),> 63.8 µM (inactive),31.1 µM (inactive),> 50.8 µM (inactive),> 65 µM (inactive),> 84.9 µM (inactive),> 64.7 µM (inactive),> 100 µM (inactive)
C1CCNCC1.S=C(S)N1CCCCC1,192 µM (inactive),64.6 µM (inactive),95.1 µM (inactive),58.7 µM (inactive),2.26 µM (inactive),129 µM (inactive),1.46 µM (inactive),213 µM (inactive),25.4 µM (inactive),61.2 µM (inactive),19.1 µM (inactive),0.307 µM (active),36.7 µM (inactive),26.4 µM (inactive),406 µM (inactive),111 µM (inactive),–,99.8 µM (inactive),1.74 µM (inactive)
CCOC(=O)CCC(C(=O)OCC)n1nnc2cc(Nc3c(C)[n+]([O-])c4ccc(Cl)cc4[n+]3[O-])ccc21 (centres undefined),26.9 µM (inactive),80.4 µM (inactive),50.8 µM (inactive),65.5 µM (inactive),> 100 µM (inactive),> 100 µM (inactive),80 µM (inactive),> 100 µM (inactive),> 100 µM (inactive),93.1 µM (inactive),> 100 µM (inactive),45 µM (inactive),> 100 µM (inactive),34.2 µM (inactive),> 100 µM (inactive),23.2 µM (inactive),67.8 µM (inactive),78 µM (inactive),73.8 µM (inactive)
C=C(Cl)C(C)(Cl)CCC(Br)C(C)(C)Cl (centres undefined),41.8 µM (inactive),16.7 µM (inactive),18.8 µM (inactive),15.4 µM (inactive),21.9 µM (inactive),22 µM (inactive),15.9 µM (inactive),21.5 µM (inactive),20 µM (inactive),12.3 µM (inactive),17.1 µM (inactive),37.1 µM (inactive),41.5 µM (inactive),16.6 µM (inactive),20.6 µM (inactive),47.2 µM (inactive),15.8 µM (inactive),29.1 µM (inactive),16.9 µM (inactive)
Cn1c(=O)c2sc3c4sc5c(=O)n(C)c6ccccc6c5c4sc3c2c2ccccc21,> 100 µM (inactive),> 100 µM (inactive),90.8 µM (inactive),> 100 µM (inactive),> 100 µM (inactive),46.5 µM (inactive),47.5 µM (inactive),> 100 µM (inactive),> 100 µM (inactive),42.6 µM (inactive),> 100 µM (inactive),> 100 µM (inactive),> 100 µM (inactive),> 100 µM (inactive),> 100 µM (inactive),> 100 µM (inactive),> 100 µM (inactive),–,> 100 µM (inactive)
CC(C)NC(=O)OCc1c(COC(=O)NC(C)C)n(C)c2c1ccc1ccccc12,1.82 µM (inactive),2.02 µM (inactive),1.16 µM (inactive),1.9 µM (inactive),4.51 µM (inactive),4.75 µM (inactive),1.63 µM (inactive),2.97 µM (inactive),1.63 µM (inactive),1.83 µM (inactive),0.877 µM (active),2.86 µM (inactive),1.57 µM (inactive),0.57 µM (active),0.398 µM (active),2.43 µM (inactive),3.34 µM (inactive),4.56 µM (inactive),2.34 µM (inactive)
CNC(=O)C(C)NC(=O)C(Cc1ccccc1)NC(=O)OC(C)(C)C (centres undefined),> 100 µM (inactive),> 100 µM (inactive),> 100 µM (inactive),> 100 µM (inactive),> 100 µM (inactive),> 100 µM (inactive),> 100 µM (inactive),> 100 µM (inactive),> 100 µM (inactive),> 100 µM (inactive),> 100 µM (inactive),> 100 µM (inactive),> 100 µM (inactive),> 100 µM (inactive),> 100 µM (inactive),> 100 µM (inactive),> 100 µM (inactive),> 100 µM (inactive),> 100 µM (inactive)
COc1cc(C2c3cc4c(cc3OC(Nc3ccc(C(=O)O)cc3)C2C)OCO4)cc(OC)c1OC (centres undefined),2.31 µM (inactive),0.991 µM (active),4.13 µM (inactive),0.426 µM (active),0.241 µM (active),0.446 µM (active),0.346 µM (active),0.841 µM (active),0.301 µM (active),0.295 µM (active),0.0655 µM (active),0.186 µM (active),0.714 µM (active),0.232 µM (active),0.467 µM (active),0.745 µM (active),0.329 µM (active),0.214 µM (active),0.0735 µM (active)
